Data set [1] in a line: Hydrodynamic diameter of detergent self-assemblies by dynamic light scattering. The following applies: 1.0 wt% detergent, water, room temperature, n = 4. The format is physicochemical.
Data set [2] has as its target T1, MelBSt (Salmonella typhimurium, UniProt P30878). The following applies: 1.5 wt% detergent, further 90 min at 55 °C.
Data set [3] is classed as physicochemical. The following applies: in water at room temperature; DPH dye.
The target of data set [4] is T1, MelBSt. The format is biochemical. The note with it: MelBSt extracted with 1.0 wt% detergent.
The nature of data set [5]: Water-solubility of detergents. The format is physicochemical. The following applies: in water.
The subject of data set [6] is LeuT. Briefly: LeuT stability assay. The format is biochemical, Aquifex aeolicus. The note with it: detergent at CMC + 0.04 wt%, 13-day incubation, room temperature.
Data set [7] concerns the target μ-opioid receptor (MOR) (Mus musculus, UniProt P42866). Briefly: MOR stability assay. The format is biochemical. The note with it: 0.1 wt% detergent, 3-day incubation at room temperature.
For data set [8], the target named is T2, MelBEc (Escherichia coli, UniProt P02921). Briefly: MelB Trp→D2G FRET assay. The format is biochemical, E. coli. The note with it: MelBEc extracted with 1.0 wt% detergent.
T2 sequence (P02921 whole entry): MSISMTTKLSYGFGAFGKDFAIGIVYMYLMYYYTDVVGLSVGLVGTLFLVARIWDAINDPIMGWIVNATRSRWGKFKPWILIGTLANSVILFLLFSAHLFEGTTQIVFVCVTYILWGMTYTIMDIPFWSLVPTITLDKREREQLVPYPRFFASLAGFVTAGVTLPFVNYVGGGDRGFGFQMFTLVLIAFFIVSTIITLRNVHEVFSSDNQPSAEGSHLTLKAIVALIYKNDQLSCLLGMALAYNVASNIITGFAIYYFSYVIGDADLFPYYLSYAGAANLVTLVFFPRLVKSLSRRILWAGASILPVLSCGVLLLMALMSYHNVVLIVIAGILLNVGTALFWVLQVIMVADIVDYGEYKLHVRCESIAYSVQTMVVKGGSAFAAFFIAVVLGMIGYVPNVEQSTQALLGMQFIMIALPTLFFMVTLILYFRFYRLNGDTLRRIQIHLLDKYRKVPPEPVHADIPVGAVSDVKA
Data set [9] has as its target T2, MelBEc. The following applies: read-out: Apparent Kd, in the presence of Na+; cited from earlier work.
Data set [10] concerns the target T1, MelBSt. The note with it: read-out: Apparent Kd, in the presence of Na+; cited from earlier work.

T1 sequence (P30878 whole entry): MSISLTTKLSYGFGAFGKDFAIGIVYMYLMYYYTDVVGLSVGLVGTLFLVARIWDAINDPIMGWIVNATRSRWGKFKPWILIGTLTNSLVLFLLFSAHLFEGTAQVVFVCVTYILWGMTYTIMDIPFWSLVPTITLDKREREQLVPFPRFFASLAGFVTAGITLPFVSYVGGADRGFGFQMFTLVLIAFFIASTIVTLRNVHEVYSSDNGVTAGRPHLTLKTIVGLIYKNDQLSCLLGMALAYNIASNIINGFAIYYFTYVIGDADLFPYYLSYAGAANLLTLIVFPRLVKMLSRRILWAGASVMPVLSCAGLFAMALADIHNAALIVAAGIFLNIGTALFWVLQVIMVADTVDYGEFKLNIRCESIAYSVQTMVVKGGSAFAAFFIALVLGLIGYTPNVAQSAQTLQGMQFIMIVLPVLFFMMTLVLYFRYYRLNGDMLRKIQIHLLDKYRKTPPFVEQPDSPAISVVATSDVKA
μ-opioid receptor (MOR), sequence (P42866 whole entry): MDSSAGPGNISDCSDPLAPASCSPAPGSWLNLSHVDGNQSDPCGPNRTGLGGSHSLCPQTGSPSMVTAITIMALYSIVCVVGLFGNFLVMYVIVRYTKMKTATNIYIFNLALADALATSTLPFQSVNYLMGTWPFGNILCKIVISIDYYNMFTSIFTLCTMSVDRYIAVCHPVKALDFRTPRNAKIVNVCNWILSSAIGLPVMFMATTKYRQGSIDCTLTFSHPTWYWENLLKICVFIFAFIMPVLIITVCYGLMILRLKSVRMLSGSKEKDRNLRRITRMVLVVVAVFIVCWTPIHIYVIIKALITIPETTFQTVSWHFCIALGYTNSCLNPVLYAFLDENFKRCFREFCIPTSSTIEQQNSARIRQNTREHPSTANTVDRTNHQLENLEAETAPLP

For `CCCCCCCCCCCCO[C@@H]1O[C@H](CO)[C@@H](O[C@H]2O[C@H](CO)[C@@H](O)[C@H](O)[C@H]2O)[C@H](O)[C@H]1O` [DDM, n-dodecyl-β-D-maltoside], the “Dh (hydrodynamic diameter of aggregates)” value in data set [1] amounted to 6.8 ± 0.6 nm. Besides, the “soluble MelBSt after incubation” value in data set [2] was “little DDM-solubilized MelBSt detectable”. In [3], the “CAC (critical aggregation concentration)” value is 170 µM. Further, the “fluorescence response to D2G and melibiose (MelB function)” value in data set [4] was “responsive to the successive addition of D^2G and melibiose”; in data set [8], “no response was observed”. Moreover, in [5], the “Solubility (water-solubility)” value is recorded as about 10 wt%. The “LeuT long-term stability ([3H]-Leu binding ability)” value in data set [6] is listed as “steady decrease in the substrate binding ability over time”. Further, in data set [7], the “MOR long-term stability ([3H]-DPN binding ability)” value is given as “complete loss in ligand binding ability after a 1-day incubation”.
Regarding `CN(C)c1cccc2c(S(=O)(=O)NCCS[C@@H]3O[C@H](CO)[C@H](O)[C@H](O)[C@H]3O)cccc12` [D^2G, 2′-(N-Dansyl)aminoalkyl-1-thio-β-D-galactopyranoside], the Kd in data set [9] is 3.1 µM; in data set [10], 10.3 µM.
`OC[C@H]1O[C@H](OCC2O[C@@H](O)[C@H](O)[C@@H](O)[C@@H]2O)[C@H](O)[C@@H](O)[C@H]1O` (stereo partly drawn) [melibiose]: the Kd is 490 µM in [9] and 1070 µM in data set [10].

(Values after PMC8222176 (Acta biomaterialia, 2021).)
